Experimental data as given in the supplement of paper PMC10307832.

Tests used:
Assay in all cases: relative viability (nuclei count vs DMSO), 5 days (fraction); higher = more cells survive
Everolimus + Linsitinib = compound: CO[C@H]1C[C@@H]2CC[C@@H](C)[C@@](O)(O2)C(=O)C(=O)N2CCCC[C@H]2C(=O)O[C@H]([C@H](C)C[C@@H]2CC[C@@H](OCCO)[C@H](OC)C2)CC(=O)[C@H](C)/C=C(\C)[C@@H](O)[C@@H](OC)C(=O)[C@H](C)C[C@H](C)/C=C/C=C/C=C/1C [Everolimus] + C[C@]1(O)C[C@@H](c2nc(-c3ccc4ccc(-c5ccccc5)nc4c3)c3c(N)nccn32)C1 [Linsitinib] (partner 1 µM)
How it was run: (§1)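 Five library-drug doses in √10 steps were combined with a fixed anchor-drug dose, or a single drug was given alone, by pin tool to lung cancer cell lines in 1536-well plates the day after seeding. Nuclei were stained and counted after 5 days. Relative viability is the nuclei count in treated wells over that in vehicle wells, taken as the median of duplicate plates.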

Everolimus + Vorinostat = compound: CO[C@H]1C[C@@H]2CC[C@@H](C)[C@@](O)(O2)C(=O)C(=O)N2CCCC[C@H]2C(=O)O[C@H]([C@H](C)C[C@@H]2CC[C@@H](OCCO)[C@H](OC)C2)CC(=O)[C@H](C)/C=C(\C)[C@@H](O)[C@@H](OC)C(=O)[C@H](C)C[C@H](C)/C=C/C=C/C=C/1C [Everolimus] + O=C(CCCCCCC(=O)Nc1ccccc1)NO [Vorinostat] (partner 1 µM)
How it was run: as §1

Everolimus + Pemetrexed = compound: CO[C@H]1C[C@@H]2CC[C@@H](C)[C@@](O)(O2)C(=O)C(=O)N2CCCC[C@H]2C(=O)O[C@H]([C@H](C)C[C@@H]2CC[C@@H](OCCO)[C@H](OC)C2)CC(=O)[C@H](C)/C=C(\C)[C@@H](O)[C@@H](OC)C(=O)[C@H](C)C[C@H](C)/C=C/C=C/C=C/1C [Everolimus] + Nc1nc2[nH]cc(CCc3ccc(C(=O)N[C@@H](CCC(=O)O)C(=O)O)cc3)c2c(=O)[nH]1 [Pemetrexed] (partner 0.2 µM)
How it was run: as §1

Everolimus + Navitoclax = compound: CO[C@H]1C[C@@H]2CC[C@@H](C)[C@@](O)(O2)C(=O)C(=O)N2CCCC[C@H]2C(=O)O[C@H]([C@H](C)C[C@@H]2CC[C@@H](OCCO)[C@H](OC)C2)CC(=O)[C@H](C)/C=C(\C)[C@@H](O)[C@@H](OC)C(=O)[C@H](C)C[C@H](C)/C=C/C=C/C=C/1C [Everolimus] + CC1(C)CCC(c2ccc(Cl)cc2)=C(CN2CCN(c3ccc(C(=O)NS(=O)(=O)c4ccc(N[C@H](CCN5CCOCC5)CSc5ccccc5)c(S(=O)(=O)C(F)(F)F)c4)cc3)CC2)C1 [Navitoclax] (partner 0.5 µM)
How it was run: as §1

Cell Line | relative viability (Everolimus + Linsitinib; first compound 0.01 µM) | relative viability (Everolimus + Linsitinib; first compound 0.1 µM) | relative viability (Everolimus + Linsitinib; first compound 0.3162 µM) | relative viability (Everolimus + Linsitinib; first compound 1 µM) | relative viability (Everolimus + Vorinostat; first compound 0.01 µM) | relative viability (Everolimus + Vorinostat; first compound 0.03162 µM) | relative viability (Everolimus + Vorinostat; first compound 0.1 µM) | relative viability (Everolimus + Vorinostat; first compound 0.3162 µM) | relative viability (Everolimus + Vorinostat; first compound 1 µM) | relative viability (Everolimus + Pemetrexed; first compound 0.01 µM) | relative viability (Everolimus + Pemetrexed; first compound 0.03162 µM) | relative viability (Everolimus + Pemetrexed; first compound 0.1 µM) | relative viability (Everolimus + Pemetrexed; first compound 0.3162 µM) | relative viability (Everolimus + Pemetrexed; first compound 1 µM) | relative viability (Everolimus + Linsitinib; first compound 0.03162 µM) | relative viability (Everolimus + Navitoclax; first compound 0.01 µM) | relative viability (Everolimus + Navitoclax; first compound 0.03162 µM) | relative viability (Everolimus + Navitoclax; first compound 0.1 µM) | relative viability (Everolimus + Navitoclax; first compound 0.3162 µM) | relative viability (Everolimus + Navitoclax; first compound 1 µM)
NCI-H650 | 0.53 | 0.506 | 0.512 | 0.557 | 0.324 | 0.212 | 0.293 | 0.212 | 0.254 | 0.645 | 0.606 | 0.626 | 0.516 | 0.591 | – | – | – | – | – | –
NCI-H661 | 0.473 | 0.361 | 0.319 | 0.306 | 0.607 | 0.687 | 0.671 | 0.678 | 0.555 | 0.805 | 0.763 | 0.863 | 0.793 | 0.664 | 0.575 | – | – | – | – | –
NCI-H727 | 0.207 | 0.203 | 0.291 | 0.362 | 0.915 | 0.797 | 0.79 | 0.922 | 0.886 | – | – | – | – | – | 0.2 | 0.263 | 0.211 | 0.179 | 0.231 | 0.208
NCI-H1299 | 0.855 | 0.544 | 0.848 | 0.819 | – | – | – | – | – | – | – | – | – | – | 1 | 1.03 | 1.03 | 1.04 | 1.08 | 1.07
NCI-H1563 | 0.993 | 0.766 | 0.683 | 0.734 | – | – | – | – | – | 0.715 | 0.572 | 0.618 | 0.576 | 0.546 | 0.757 | – | – | – | – | –
NCI-H1648 | – | – | – | – | 0.422 | 0.383 | 0.307 | 0.423 | 0.406 | 0.544 | 0.538 | 0.659 | 0.629 | 0.742 | – | – | – | – | – | –
